According to patent US20200163938A1, “PHARMACEUTICAL COMPOSITION COMPRISING IRON CHELATOR EXHIBITING ANTITUMOR ACTIVITY, ANTIBACTERIAL ACTIVITY AND/OR ANTIVIRUS ACTIVITY, AND HAVING REDUCED SIDE EFFECTS” (priority 2017, published 2020):
“Also recorded” adds a separate entry of the source.

Tests used:
[1] = tested on: S. aureus (ATCC6538; Staphylococcus aureus); experiment: Minimum growth inhibition concentration (MIC); assay type: cell-based
Experimental: (§1) The dilution series of the chelating agent of each test group was prepared according to a standard method, microbes were inoculated, and then 24 hours later, the microbial growth was confirmed, thereby determining the minimum growth inhibition concentration of the chelating agent of each test group. Microbes used herein were S. aureus (ATCC6538; Staphylococcus aureus), P. aeruginosa (ATCC9027; Pseudomonas aeruginosa) and C. albicans (ATCC10231; Candida albicans). Drugs used herein were oxacillin, vancomycin and deferasirox as positive controls.

[2] = tested on: C. albicans (ATCC10231; Candida albicans); experiment: Minimum growth inhibition concentration (MIC); assay type: cell-based; settings: 24 hours
Experimental: as §1

[3] = tested on: P. aeruginosa (ATCC9027; Pseudomonas aeruginosa); experiment: Minimum growth inhibition concentration (MIC); assay type: cell-based
Experimental: as §1

S. mutans (ATCC25175) = experiment: Antibacterial activity, turbidity and ATP assay; assay type: cell-based, Streptococcus mutans; settings: aerobic culture 37° C., 18 hours; FIGS. 6A, 6B
Experimental: First, the antibacterial activity of a dental caries-causing bacterium, S. mutans (ATCC25175) was examined. With the use of a liquid medium prepared by adding a yeast extract and the chelating agent of each test group to TSB medium, aerobic culture was performed at 37° C. for 18 hours, and then turbidity was found from optical density (OD570 or 595 nm). Cell activity was measured using an ATP assay kit (Kikkoman Corporation). Results were as depicted in FIGS. 6A and 6B.

P. gingivalis Pg W83 = experiment: Antibacterial activity, turbidity and ATP assay; assay type: cell-based, Porphyromonas gingivalis; settings: anaerobic culture 37° C., 18 hours, OD595 nm; FIG. 8
Experimental: A bacterial strain of one of periodontopathic bacteria, gram-negative bacillus, P. gingivalis, used herein was Pg W83. With the use of a liquid medium prepared by adding the chelating agent of each test group to a modified GAM bouillon medium, anaerobic culture (Anaeropack.anaerobic) was performed at 37° C. for 18 hours. Turbidity was found from optical density (OD595 nm). Results were as depicted in FIG. 8.

[4] = tested on: A. actinomycetemcomitans AaY4 (ATCC); experiment: Antibacterial activity, turbidity and ATP assay; assay type: cell-based, Aggregatibacter actinomycetemcomitans; settings: anaerobic culture 37° C., 18 hours; FIGS. 7A, 7B
Experimental: A bacterial strain of one of periodontopathic bacteria, A. actinomycetemcomitans, used herein was AaY4 (ATCC). With the use of a liquid medium prepared by adding a yeast extract, sodium bicarbonate and the chelating agent of each test group to TSB medium, anaerobic culture (Anaeropack-anaerobic) was performed at 37° C. for 18 hours. Turbidity was measured using absorbance (OD570 or 595 nm), and cell activity was measured using an ATP assay kit. Results were as depicted in FIGS. 7A and 7B.

[5] = tested on: human oral squamous cell carcinoma HSC-2; experiment: Antitumor effects, cell viability (XTT method); assay type: cell-based; settings: FIG. 10
Experimental: (§2) The antitumor effects of the chelating agents of test groups 1 to 10 on each of human lung cancer cell line A549, human liver cancer cell line PLC, and human colon adenocarcinoma cell line HCT116 were confirmed. A549 cells or PLC cells were seeded at 3000 cells/well, and HCT116 cells were seeded at 6000 cells/well. After 24 hours, the fetal bovine serum (FBS) concentration was changed from 10% to 1%, each compound of the test groups 1 to 10 was introduced into medium. Cell viability was confirmed after 48 hours by the Trypan blue method, or, cell viability was confirmed after 48 hours by performing medium exchange and then after 24 hours by performing the XTT method. Deferoxamine mesylate (Desferal (Trademark)) was used as a positive control. Results are as depicted in FIGS. 1A, 1B, 2 and 3.
(§3) Moreover, similarly to the above experiment on antitumor effects, the antitumor effects of the chelating agent of test group 6 or 10 on each of human breast cancer cell line MCF-7 and human oral squamous cell carcinoma HSC-2 were confirmed.

[6] = tested on: human breast cancer cell line MCF-7; experiment: Antitumor effects, cell viability (XTT method); assay type: cell-based; settings: FIG. 9
Experimental: as §2, §3

[7] = tested on: subcutaneously-transplanted HCT116 cells; assay type: in vivo, nude mice (BALB/c nu/nu); settings: mouse, in vivo, 200 mg/kg/day
Experimental: Next, the antitumor effects of the chelating agents of test groups 6 and 10 on HCT116-cell subcutaneous transplantation model mice, into which HCT116 cells had been subcutaneously transplanted, were confirmed. Mice prepared herein were nude mice (BALB/c nu/nu, 6 weeks old: Clea Japan Inc.). HCT116 cells were adjusted at 3×10^6/mouse, and then mixed with Matrigel (BD Biosciences) at 1:1. The thus obtained mixture was administered to mice, thereby preparing subcutaneous tumors. The dosage was 200 mg/kg/day (5 times/week administration). […] Tissue sections of HCT116 cells subcutaneously transplanted into the test group 10 administration group were prepared, and then hematoxylin-eosin (HE) staining, and TUNEL staining were performed by the above-mentioned method.

MCF-7 cells = experiment: Western blot of apoptosis-related factors; assay type: cell-based, human; settings: MCF-7 cell lysate; FIG. 12
From the text: (§4) The cell lysate of each type of cells treated with the chelating agents of test groups 6 and 10 was Western-blotted, and then an increase or a decrease in apoptosis-related factors in treated cells was confirmed using the indicated antibodies. […] Concentration-dependent apoptosis induction was also biochemically confirmed.

HSC-2 cells [8] = experiment: Western blot of apoptosis-related factors; assay type: cell-based, human; settings: HSC-2 cell lysate; FIG. 12
From the text: as §4

A549 cells = experiment: Western blot of apoptosis-related factors; assay type: cell-based, human; settings: A549 cell lysate; FIG. 12
From the text: as §4

HCT116 cells = experiment: Apoptosis induction, TUNEL staining; assay type: cell-based, human; settings: 10 μg/mL, 48 hours, FIG. 11B
Experimental: (§5) Furthermore, the apoptosis-inducing effects of the chelating agents of test groups 6 and 10 on tumors were confirmed. First, 100 μg/mL of the chelating agent of test group 6 or 50 μg/mL of the chelating agent of test group 10 was added to HSC-2 cells in a culture solution. After 48 hours of reaction, TUNEL Assay was carried out. Specifically, apoptosis induction was evaluated by the TUNEL staining method using a MK500 in situ Apoptosis Detection Kit (Takara Bio Inc.).
Similarly, the apoptosis-inducing effects of the chelating agent of test group 6 or 10 on HCT116 cells were confirmed. 10 μg/mL of the chelating agent of test group 6 was added and 6.5 µg/mL of the chelating agent of test group 10 was added to the cells. After 48 hours of reaction, TUNEL staining was carried out similarly to the above.

HSC-2 cells [9] = experiment: Apoptosis induction, TUNEL staining; assay type: cell-based, human; settings: 100 μg/mL, 48 hours, FIG. 11A
Experimental: as §5

Cl.OCC1OC(O)C(NCc2ccc(O)c(O)c2O)C(O)C1O (stereo not shown) [Test group 6]
MIC S. aureus ([1]; 24 hours): 400 µg/mL
antimicrobial effects on S. aureus (in words) ([1]; from Table 10): strong antimicrobial effects
MIC C. albicans [2]: >800 µg/mL
MIC P. aeruginosa ([3]; 24 hours): 400 µg/mL
antimicrobial effects on P. aeruginosa (in words) ([3]; from Table 10): exhibited antimicrobial effects
antimicrobial effects on S. mutans (turbidity, ATP activity) (S. mutans (ATCC25175)): strong antimicrobial effects; also recorded: very strong antibacterial activity
antimicrobial effects on P. gingivalis (turbidity) (P. gingivalis Pg W83): exhibited antimicrobial effects
antimicrobial effects on A. actinomycetemcomitans (turbidity, ATP activity) [4]: strong antimicrobial effects
antitumor effects on HSC-2 (cell viability) [5]: exhibit antitumor effects
antitumor effects on MCF-7 (cell viability) [6]: exhibit antitumor effects
body weight change [7]: no body weight change due to administration was observed
PARP cleaved fragments and caspase-3-cleaved fragments (Western blot) (MCF-7 cells): PARP cleaved fragments and caspase-3-cleaved fragments were confirmed
PARP cleaved fragments and caspase-3-cleaved fragments (Western blot) (HSC-2 cells [8]): PARP cleaved fragments and caspase-3-cleaved fragments were confirmed
PARP cleaved fragments and caspase-3-cleaved fragments (Western blot) (A549 cells): PARP cleaved fragments and caspase-3-cleaved fragments were confirmed
apoptosis-inducing effects (TUNEL staining) (HCT116 cells): green-stained cells indicating apoptosis were confirmed
apoptosis-inducing effects (TUNEL staining) (HSC-2 cells [9]): green-stained cells indicating apoptosis were confirmed
